Data from US20250352561A1, “COMPOSITIONS AND METHODS USING TETRAHYDROCANNABINOL AND COMPOSITIONS INCLUDING SAME FOR TREATING INDICATIONS INVOLVING INFLAMMATION” (priority 2023, published 2025).
Where a name gives a salt, the structure may show the parent alone. Read-outs that look alike come from different tables or passages of the source.

Experiments:
[1] = cited from earlier work
[2] = fasted, n=34, cited from earlier work
[3] = tested on: COVID-19 patients who required supplemental oxygen; test: Retrospective clinical study of dronabinol plus standard of care in hospitalized COVID-19 patients requiring oxygen (Example 1); format: in vivo, human
[4] = in vivo; cited from earlier work
[5] = cited from earlier work; remark: listed apart in the source
[6] = tested on: COVID-19-positive patients hospitalized for hypoxia; test: Comparative analysis of dronabinol alone vs dronabinol plus fluvoxamine in COVID-19-positive patients hospitalized for hypoxia (Example 8, Table 6)
Method: From October 2020 through December of 2020 a single infectious disease specialist treated consecutive adult COVID-19-positive patients hospitalized for hypoxia with oral dronabinol in addition to then current standard of care which consisted of ceftriaxone, azithromycin, dexamethasone, remdesivir, subcutaneous heparin, and convalescent plasma in addition to respiratory support per standard ICU protocols. Nine patients received 2.5 mg twice orally daily and 68 patients received 5 mg orally twice daily. A retrospective control group of consecutively treated COVID-19-positive patients hospitalized for hypoxia from June 2020 through August 2020, was treated with the same standard of care.
15, 2021, twelve consecutive un-vaccinated COVID-19-positive patients hospitalized for hypoxia were treated by a single physician. They received current standard of care which consisted of ceftriaxone, azithromycin, dexamethasone, remdesivir, and Eliquis in addition to respiratory support per standard ICU protocols. […] One patient was excluded from analysis due to pre-COVID-19 oxygen dependence, and because they were still in the hospital as of this writing on their twelfth hospital day.

[7] = tested on: cytokine storm; settings: cited from earlier work
[8] = cited from earlier work; remark: listed apart in the source
[9] = tested on: serotonin uptake; settings: in vitro, rats; cited from earlier work
[10] = tested on: norepinephrine reuptake; settings: in vitro, rats; cited from earlier work
[11] = human, in vivo; cited from earlier work
[12] = cited from earlier work; for Multiple dose elimination half-life: steady state
[13] = tested on: alpha adrenergic receptors; settings: in vitro; cited from earlier work
[14] = hepatic dysfunction vs healthy subjects, cross study comparison; cited from earlier work
[15] = tested on: neuronal uptake of serotonin; settings: in vitro as well as in vivo; cited from earlier work
[16] = tested on: histaminergic receptors; settings: in vitro; cited from earlier work
[17] = tested on: beta adrenergic receptors; settings: in vitro; cited from earlier work
[18] = tested on: muscarinic receptors; settings: in vitro; cited from earlier work
[19] = molecular target: sigma-1 non-opioid receptor (Homo sapiens, UniProt Q99720); settings: compared with all pharmaceutical chemicals tested so far; cited from earlier work
Sequence of sigma-1 non-opioid receptor (Q99720 whole entry): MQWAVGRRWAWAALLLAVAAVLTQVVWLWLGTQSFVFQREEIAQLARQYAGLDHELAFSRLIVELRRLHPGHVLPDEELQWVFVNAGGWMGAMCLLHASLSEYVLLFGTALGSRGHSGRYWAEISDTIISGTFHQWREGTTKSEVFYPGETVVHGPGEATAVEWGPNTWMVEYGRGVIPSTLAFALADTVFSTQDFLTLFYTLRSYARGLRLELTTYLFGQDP

[20] = tested on: dopaminergic receptors; settings: in vitro; cited from earlier work
[21] = tested on: plasma protein, mostly albumin; settings: concentration range of 20 to 2000 ng/mL, cited from earlier work

Structure (SMILES): CCCCCc1cc(O)c2c(c1)OC(C)(C)[C@@H]1CCC(CO)=C[C@@H]21 [11-OH-delta-9-THC]
- Plasma concentration of principal active metabolite relative to Δ9-THC ([1]; plasma): approximately equal concentrations

Structure (SMILES): CCCCCc1cc(O)c2c(c1)OC(C)(C)[C@@H]1CCC(C)=C[C@@H]21 [dronabinol, (−)-(6aR,10aR)-6,6,9-trimethyl-3-pentyl-6a,7,8,10a-tetrahydro-6H-benzo[c]-chromen-1-ol]
- AUC (0-12), Mean (SD) ([2]; BID Dose 2.5 mg): 2.88 (1.57) ng*hr/mL
- Cmax, Mean (SD) ([2]; BID Dose 2.5 mg): 1.32 (0.62) ng/mL
- Median Tmax (range) ([2]; BID Dose 2.5 mg): 1.00 (0.50-4.00) hr
- AUC (0-12), Mean (SD) ([2]; BID Dose 5 mg): 6.16 (1.85) ng*hr/mL
- Cmax, Mean (SD) ([2]; BID Dose 5 mg): 2.96 (1.81) ng/mL
- Median Tmax (range) ([2]; BID Dose 5 mg): 2.50 (0.50-4.00) hr
- AUC (0-12), Mean (SD) ([2]; BID Dose 10 mg): 15.2 (5.52) ng*hr/mL
- Cmax, Mean (SD) ([2]; BID Dose 10 mg): 7.88 (4.54) ng/mL
- Median Tmax (range) ([2]; BID Dose 10 mg): 1.50 (0.50-3.50) hr
- Deaths ([3]; among the 77 patients in the treatment group): 5
- Average first peak C-reactive protein (CRP) levels, difference (lower in treatment group) ([3]; vs control, p-value of 0.07, not statistically significant): 14%
- Reported fatality from overdosage [4]: has not had a reported fatality from overdosage
- Time for which low levels of metabolites are detected in urine and feces ([1]; following single dose administration): more than 5 weeks
- Oral dose recovered unchanged in the feces ([1]; in vivo, po): Less than 5%
- Administered dose reaching the systemic circulation ([1]; oral dose): 10-20%
- Absorbed after oral dose ([1]; single oral doses): 90-95%
- Initial (alpha) half-life ([1]; two-compartment model): about 4 hours
- Radio-labeled oral dose recovered from the feces ([1]; within 72 hours): about half
- Duration of appetite stimulant effect ([5]; after administration): ≥ 24 h
- Time to tolerance to cardiovascular and subjective adverse CNS effects ([5]; healthy male volunteers (N=12), 210 mg/day orally in divided doses for 16 days): ≤ 12 days
- Persistence of appetite stimulant effect ([5]; patients with AIDS, Δ9-THC capsules 2.5 mg/day to 20 mg/day): sustained for up to five months
- # Survived ([6]; 2.5 mg Dronabinol, total 9 in group): 8
- LOS ([6]; 5 mg Dronabinol, length of hospital stay): 8.8
- # Survived ([6]; 5 mg Dronabinol, total 68 in group): 64
- Mortality ([7]; animal model of cytokine storm induced ARF and/or ARDS): decrease mortality
- Prevention of death of animals that received a fatal dose of the biotoxin ([7]; animal models): prevent the death of one hundred percent of all animals

Structure (SMILES): NCCO/N=C(\CCCC(=O)O)c1ccc(C(F)(F)F)cc1 [fluvoxamine acid]
- Share of urinary excretion products ([8]; fluvoxamine acid together with its N-acetylated analog): about 60%
- Inhibition of serotonin uptake [9]: weak effect
- Potency relative to the parent compound (less potent) [9]: 1-2 orders of magnitude
- Norepinephrine reuptake inhibition [10]: inactive

Structure (SMILES): COCCCC/C(=N\OCCO)c1ccc(C(F)(F)F)cc1 [fluvoxamine ethanol]
- Share of urinary excretion products ([8]; fluvoxamine ethanol): about 10%

Structure (SMILES): COCCCC/C(=N\OCCN)c1ccc(C(F)(F)F)cc1 [fluvoxamine maleate]
- Time of maximum plasma concentrations at steady state [11]: 3 to 8 h

Structure (SMILES): COCCCC/C(=N\OCCN)c1ccc(C(F)(F)F)cc1 [fluvoxamine, 2-[(E)-[5-methoxy-1-[4-(trifluoromethyl)phenyl]pentylidene]amino]oxyethanamine]
- Mean plasma half-life at steady state ([8]; human, in vivo, po): 15.6 h
- Excreted in urine unchanged ([8]; in vivo): Approximately 2%
- Reduction of clearance ([12]; elderly patients): about 50%
- Multiple dose elimination half-life ([12]; elderly, 50 mg): 17.4 h
- Multiple dose elimination half-life ([12]; elderly, 100 mg): 25.9 h
- Multiple dose elimination half-life ([12]; young subjects, 50 mg): 13.6 h
- Multiple dose elimination half-life ([12]; young subjects, 100 mg): 15.6 h
- Affinity for alpha adrenergic receptors [13]: no significant affinity
- Decrease in clearance [14]: 30%
- Serotonin reuptake inhibition [15]: potent serotonin reuptake inhibitor
- Affinity for histaminergic receptors [16]: no significant affinity
- Affinity for beta adrenergic receptors [17]: no significant affinity
- Affinity for muscarinic receptors [18]: no significant affinity
- Agonistic sigma-1 binding affinity [19]: strongest agonistic sigma-1 binding affinity
- Affinity for dopaminergic receptors [20]: no significant affinity
- Bound to plasma protein [21]: Approximately 80%
- Bound to plasma protein ([21]; listed as Fluvoxamine): 80%
